Laboratory results: ChEMBL document CHEMBL1201862, “PubChem BioAssay data set” (2004)
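1) Cells in 96-well plates. 2) Compound, 48 h, 5 concentrations. 3) Linear interpolation between surrounding doses. 4) Unreached endpoint = highest concentration. Abbreviation: GI50, concentration required for 50% inhibition of growth.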 Active and inactive are the calls of the source. No stated cut-off is given here; in the data, active = GI50 up to about 1.1 µM and inactive = higher.

Legend:
Assay in all cases: inhibition of tumour cell growth, NCI panel, 48 h
[1] = tested on: HL-60
[2] = tested on: CCRF-CEM
[3] = tested on: UO-31
[4] = tested on: MDA-N
[5] = tested on: HOP-62
[6] = tested on: MCF7
[7] = tested on: HT-29
[8] = tested on: SK-MEL-28
[9] = tested on: HCT-15
[10] = tested on: BT-549
[11] = tested on: SF-268
[12] = tested on: U-251
[13] = tested on: SW-620
[14] = tested on: T47D
[15] = tested on: RPMI-8226
[16] = tested on: NCI-H522
[17] = tested on: K562
[18] = tested on: CAKI-1
[19] = tested on: LOX IMVI
[20] = tested on: SR

| SMILES | GI50 [1] | GI50 [2] | GI50 [3] | GI50 [4] | GI50 [5] | GI50 [6] | GI50 [7] | GI50 [8] | GI50 [9] [µM] | GI50 [10] | GI50 [11] | GI50 [12] | GI50 [13] | GI50 [14] | GI50 [15] | GI50 [16] | GI50 [17] | GI50 [18] | GI50 [19] | GI50 [20] |
| --- | --- | --- | --- | --- | --- | --- | --- | --- | --- | --- | --- | --- | --- | --- | --- | --- | --- | --- | --- | --- |
| [O-][S+](c1ccc(Cl)cc1)c1ccccc1C1=NCCN1 (centres undefined) | > 100 µM (inactive) | > 100 µM (inactive) | > 100 µM (inactive) | > 100 µM (inactive) | > 100 µM (inactive) | > 100 µM (inactive) | > 100 µM (inactive) | > 100 µM (inactive) | > 100 | > 100 µM (inactive) | > 100 µM (inactive) | > 100 µM (inactive) | > 100 µM (inactive) | > 100 µM (inactive) | > 100 µM (inactive) | > 100 µM (inactive) | > 100 µM (inactive) | > 100 µM (inactive) |  |  |
| c1ccc(CCNc2ccccn2)nc1 | > 100 µM (inactive) | > 100 µM (inactive) | > 100 µM (inactive) | > 100 µM (inactive) | > 100 µM (inactive) | > 100 µM (inactive) | > 100 µM (inactive) | > 100 µM (inactive) | > 100 | > 100 µM (inactive) | > 100 µM (inactive) | > 100 µM (inactive) | > 100 µM (inactive) |  |  | > 100 µM (inactive) |  | > 100 µM (inactive) | > 100 µM (inactive) |  |
| CCOC(=O)c1ccc2c(c1)nc1n2C(c2c(F)cccc2F)SC1 (centres undefined) | 24.4 µM (inactive) | 33.5 µM (inactive) | 29.2 µM (inactive) |  | 31.9 µM (inactive) | 19.9 µM (inactive) | 19 µM (inactive) | 97.1 µM (inactive) | 23.3 | 80.5 µM (inactive) | 32.8 µM (inactive) | 55.6 µM (inactive) | 54.6 µM (inactive) | 12.8 µM (inactive) | 21.8 µM (inactive) |  | 29.1 µM (inactive) | 78.3 µM (inactive) | 21.1 µM (inactive) | 25.6 µM (inactive) |
| COc1ccc(-c2nc(SCC(=O)N/N=C/c3ccc(O)c(OC)c3)[nH]c2-c2ccc(OC)cc2)cc1 | 11.2 µM (inactive) | 3.44 µM (inactive) | 34.7 µM (inactive) | 22.1 µM (inactive) | 24.6 µM (inactive) | 17.9 µM (inactive) | 21.9 µM (inactive) | 28.4 µM (inactive) | 24.2 | 22.1 µM (inactive) | 54.6 µM (inactive) | 19.7 µM (inactive) | 30.8 µM (inactive) | 22.7 µM (inactive) |  | 19.2 µM (inactive) | 20 µM (inactive) | 54.3 µM (inactive) | 22.8 µM (inactive) |  |
| O=C1c2ccccc2-c2c1c(-c1cccc(Br)c1)nc1ccc3ccccc3c21 |  | > 100 µM (inactive) | > 100 µM (inactive) | > 100 µM (inactive) | > 100 µM (inactive) | > 100 µM (inactive) | > 100 µM (inactive) | > 100 µM (inactive) | > 100 | > 100 µM (inactive) | > 100 µM (inactive) | > 100 µM (inactive) | > 100 µM (inactive) | > 100 µM (inactive) | > 100 µM (inactive) |  | > 100 µM (inactive) | > 100 µM (inactive) | > 100 µM (inactive) |  |
| CCOC(=O)c1ccc2c(c1)Cc1cc([N+](=O)[O-])ccc1-2 | 76.2 µM (inactive) | 61.2 µM (inactive) | 30.4 µM (inactive) | 48 µM (inactive) | > 100 µM (inactive) | 19.3 µM (inactive) | 27.1 µM (inactive) | 43 µM (inactive) | 57.8 | 30.1 µM (inactive) | 24 µM (inactive) | 39.4 µM (inactive) | 65.2 µM (inactive) | 87.1 µM (inactive) | 41.7 µM (inactive) |  | 55 µM (inactive) | 36.6 µM (inactive) | 41.2 µM (inactive) |  |
| O=C(Nc1ccccc1C(=O)O)C(=Cc1ccccc1O)NC(=O)c1ccccc1 | > 100 µM (inactive) | > 100 µM (inactive) | > 100 µM (inactive) |  | > 100 µM (inactive) | 9.27 µM (inactive) | > 100 µM (inactive) | > 100 µM (inactive) | > 100 | > 100 µM (inactive) | > 100 µM (inactive) | > 100 µM (inactive) | > 100 µM (inactive) | 49.1 µM (inactive) | > 100 µM (inactive) | > 100 µM (inactive) | > 100 µM (inactive) | > 100 µM (inactive) | 58.9 µM (inactive) | > 100 µM (inactive) |
| COc1ccc(-c2nc(-c3cc4c(ccc5ccccc54)oc3=O)cs2)cc1 | > 100 µM (inactive) | > 100 µM (inactive) | > 100 µM (inactive) |  | 73.3 µM (inactive) | > 100 µM (inactive) | > 100 µM (inactive) | > 100 µM (inactive) | > 100 | > 100 µM (inactive) | > 100 µM (inactive) | > 10 µM (inactive) | > 100 µM (inactive) | > 100 µM (inactive) | > 100 µM (inactive) |  | > 100 µM (inactive) | > 100 µM (inactive) | > 100 µM (inactive) | > 100 µM (inactive) |
| COCN1C(=O)[C@@H]2CCCN2C(=O)c2cc(OC)c(Cc3ccccc3)cc21 |  |  | 57 µM (inactive) | > 100 µM (inactive) | > 100 µM (inactive) | 61.5 µM (inactive) | 93.3 µM (inactive) | > 100 µM (inactive) | > 100 | 81.8 µM (inactive) | > 100 µM (inactive) | 94.6 µM (inactive) | > 100 µM (inactive) | 43.3 µM (inactive) |  | 83.9 µM (inactive) |  | > 100 µM (inactive) | > 100 µM (inactive) |  |
| Cc1cn(CCCCCCC2=NCCCN2)c(=O)[nH]c1=O |  | > 100 µM (inactive) | > 100 µM (inactive) | > 100 µM (inactive) | > 100 µM (inactive) | > 100 µM (inactive) | > 100 µM (inactive) | > 100 µM (inactive) | > 100 | > 100 µM (inactive) | > 100 µM (inactive) | > 100 µM (inactive) | > 100 µM (inactive) | > 100 µM (inactive) | > 100 µM (inactive) | > 100 µM (inactive) | > 100 µM (inactive) | > 100 µM (inactive) | > 100 µM (inactive) |  |
| CS(=O)(=O)c1nc(-c2cc3c(c(S(C)(=O)=O)n2)CCCC3)cc2c1CCCCC2 | > 100 µM (inactive) | > 100 µM (inactive) | 0.0206 µM (active) | > 100 µM (inactive) | 31.6 µM (inactive) |  | > 100 µM (inactive) | > 100 µM (inactive) | > 100 | > 100 µM (inactive) | 16.8 µM (inactive) | > 100 µM (inactive) | > 100 µM (inactive) |  | > 100 µM (inactive) | 21.1 µM (inactive) |  | 59.3 µM (inactive) |  |  |
| C=C1CCCC2[C@](C)(CC3=C(Cl)C(=O)C=C(OC)C3=O)C(C)CC[C@]12C (some centres undefined) | 1.9 µM (inactive) | 1.45 µM (inactive) | 1.76 µM (inactive) | 6.95 µM (inactive) | 6.55 µM (inactive) | 1.49 µM (inactive) | 2.51 µM (inactive) | 7.31 µM (inactive) | 3.46 | 5 µM (inactive) | 5.09 µM (inactive) | 3.44 µM (inactive) | 3.02 µM (inactive) |  | 1.63 µM (inactive) | 1.16 µM (inactive) | 1.67 µM (inactive) | 3.39 µM (inactive) | 1.38 µM (inactive) | 1.47 µM (inactive) |
| C/C=C1\C(=O)OC2CCN3CCC(COC(=O)C(C)(O)C(C)C1O)C23 (centres undefined) | > 100 µM (inactive) |  | > 100 µM (inactive) | > 100 µM (inactive) |  | > 100 µM (inactive) | > 100 µM (inactive) | > 100 µM (inactive) | > 100 | > 100 µM (inactive) | > 100 µM (inactive) | > 100 µM (inactive) | > 100 µM (inactive) | > 100 µM (inactive) |  | > 100 µM (inactive) | > 100 µM (inactive) | > 100 µM (inactive) | > 100 µM (inactive) |  |
| CC(C)(C)c1ccc(OCCOc2ccc(C(C)(C)C)cc2N)c(N)c1 | > 100 µM (inactive) | 22.9 µM (inactive) | > 100 µM (inactive) |  | > 100 µM (inactive) | > 100 µM (inactive) | 10 µM (inactive) | > 100 µM (inactive) | 37.5 | 91 µM (inactive) | > 100 µM (inactive) | 17.1 µM (inactive) | > 100 µM (inactive) | 25.6 µM (inactive) | 9.89 µM (inactive) | 11.4 µM (inactive) | > 100 µM (inactive) | > 100 µM (inactive) | 27.8 µM (inactive) | > 100 µM (inactive) |
| CN1C(=O)C(O)C[C@@H]1c1ccc(F)cc1 (some centres undefined) | > 100 µM (inactive) | > 100 µM (inactive) | > 100 µM (inactive) | > 100 µM (inactive) | > 100 µM (inactive) | > 100 µM (inactive) | > 100 µM (inactive) | > 100 µM (inactive) | > 100 | > 100 µM (inactive) |  | > 100 µM (inactive) |  | > 100 µM (inactive) | > 100 µM (inactive) |  |  | > 100 µM (inactive) | > 100 µM (inactive) | > 100 µM (inactive) |
| CCNC(=S)N/N=C1\C(=O)Nc2ccc([N+](=O)[O-])cc21 | 92.9 µM (inactive) | 7.06 µM (inactive) | 25.8 µM (inactive) | > 100 µM (inactive) | 27.7 µM (inactive) | 41 µM (inactive) | 49.5 µM (inactive) | 48 µM (inactive) | 49.3 | > 100 µM (inactive) | 44.7 µM (inactive) | 29.5 µM (inactive) | 50.2 µM (inactive) | 31.6 µM (inactive) | > 100 µM (inactive) |  | 52.7 µM (inactive) | 11.9 µM (inactive) | 61.4 µM (inactive) | 31.3 µM (inactive) |
